Read-outs that look alike come from different tables or passages of the source.

Data set [1] deals with anti-CD3/CD28-induced IL-2 production. The data set is described as follows: IL-2 production by anti-CD3/CD28-stimulated Jurkat T cells (ELISA). The data set is classed as cell-based, human. The settings on record: for suppression of IL-2 production: anti-CD3/CD28 Jurkat, IKK inhibitor ≦10 μM, PKC inhibitor <0.5 μM. On the procedure:
(§1) FIG. 4A: Jurkat T cells were treated by anti-cd3/anti-cd28/anti-mouse IgG (6 μg/mL) or PMA/Ion (10 ng/mL) for 24 h, IL-2 production in medium was measured by ELISA kit. FIG. 4B-E: Jurkat T cells were pretreated by IKK inhibitor (B), PKC inhibitor (C), CID-2858522 (D) for 2 h and then treated by anti-cd3/anti-cd28/anti-mouse IgG (6 μg/mL) or PMA/Ion (10 ng/mL) for 24 h, IL-2 production in medium was measured by ELISA kit; E, Jurkat cells were treated by CID-2858522, PKC inhibitor and IKK inhibitor for 24 h, cell viability was measured by ATPlite kit.
(§2) In T cells, the antigen receptor stimulates several signal transduction pathways that converge on the IL-2 gene promoter, including NF-κB, NF-AT, and AP-1. For evaluating the effects of CID-2858522 on TCR-initiated, NF-κB-driven events in lymphocytes, we employed Jurkat T-leukemia cells, which have been utilized extensively as model for studying TCR-signaling leading to IL-2 gene expression. For these experiments, Jurkat cells were stimulated with either anti-CD3 (to activate the TCR complex) and anti-CD28 (co-stimulator) or with PMA/Ionomycin, in the presence or absence of CID-2858522, IKK inhibitor, or PKC inhibitor, then IL-2 production was measured 24 hrs later in culture supernatants. […] In contrast, CID-2858522 suppressed IL-2 production by CD3/CD28- and PMA/Ionomycin-stimulated Jurkat cells by approximately half (IC50) at concentrations <10 μM (FIG. 4D).
(§3) Lymphokine measurements. Human IL-2 or IL-8 levels in culture medium were measured by Enzyme-Linked Immunosorbent Assays (ELISAs), using BD OptEIA ELISAs (BD Biosciences, San Diego, Calif.), according to the manufacturer's protocol, using 96-well ELISA plates (BD Biosciences) and measuring absorbance within 30 minutes of initiating reactions using a SpectraMax 190 spectrophotometer (Molecular Devices).

The test system of data set [2] is PMA/Ionomycin-induced IL-2 production. Nature of the data set: IL-2 production by PMA/Ionomycin-stimulated Jurkat T cells (ELISA). The data set is classed as cell-based, human. As to the method:
as §1, §2, §3
(In general: In an ELISA, binding on a coated surface is turned into a signal by an enzyme label.)

The test system of data set [3] is Jurkat cells. Nature of the data set: Jurkat cell viability (ATPlite). The data set is classed as cell-based. As to conditions: 24 h. On the procedure: as §1
Cell viability assay. Cell viability was estimated based on cellular ATP levels, measured using ATPlite kit (Perkin Elmer). Cells at a density of 10^5/mL were seeded at 90 μL per well in 96-well white plates and cultured overnight. Compounds were added (5 μL in medium) to wells and cells were cultured for […], Finally, 50 μL ATPlite solution was added to each well and luminescence activity was read using a luminometer (LJL Biosystems, Sunnyvale, Calif.).

Data set [4] relates to anti-IgM-induced lymphocyte proliferation. Nature of the data set: Lymphocyte proliferation assay (3H-Thymidine), anti-IgM-stimulated splenocytes. Format: cell-based, mouse. The settings on record: for IC50: mouse splenocytes, 3H-Thymidine incorporation, read-out: IC50, lymphocyte proliferation, B-cells (anti-IgM). As to the method: (§4) (A) Isolated mouse primary splenocytes were cultured with anti-CD3/anti-CD28 (0.3 μg/mL each) or anti-IgM (3 μg/mL) for 48 h, then 1 μCi 3H-Thymidine was added for 12 h and incorporation into DNA was measured, expressing data as fold increase above unstimulated cells (mean±SD; n=3). (B-D) Primary splenocytes were pretreated for 2 h with IKK inhibitor, BMS-335541 (B), PKC inhibitor, Bisindolylmaleimide I (C) or CID-2858522 (D), then stimulated with anti-CD3/anti-CD28 (0.3 μg/mL) or anti-IgM (3 μg/mL) for 48 h. 1 μCi 3H-Thymidine was added for 12 h and incorporation into DNA was measured, expressing data as percent inhibition relative to control cells treated with DMSO (mean±SD; n=3). […] Levels of TRAF1 and β-actin were assessed by immunoblotting, quantified by densitometry and TRAF1 results reported relative to control cells, after normalization for β-actin (mean±SD). […] Then nuclear extracts were prepared and p65-DNA-binding activity was measured (mean±SD; n=3).
(§5) Lymphocyte proliferation assay. Splenocytes were isolated from normal Balb/c mice and red blood cells were removed using a mouse erythrocyte lysis kit (R&D Systems, Minneapolis, Minn.). Splenocytes were suspended in RMPI-1640 medium supplemented with 10% FBS, 1% penicillin-streptomycin, and 1 mM L-glutamine. Cells were diluted into 2×10^6 cells/mL and 200 μL were seeded in round bottom 96-well plates and incubated at 37° C. in 5% CO2 and 95% relative humidity. Cells were pretreated with compounds or DMSO diluted in medium for 2 h, then treated with anti-CD3/anti-CD28 or anti-IgM antibodies for 48 h, prior to adding 1 μCi [^3H]-Thymidine for (MP Biomedical, Solon, Ohio) 12 h. Cells were transferred to fiberglass filters (Wallac, Turku, Finland) using a FilterMate Harvester (Perkin Elmer), dried, and [^3H]-incorporation into DNA was quantified by scintillation counting Betaplate Scint (Perkin Elmer) and a MicroBetaTrilux LCS and luminescence counter (Perkin Elmer).
On the technique in general: Dividing cells build labelled thymidine or BrdU into new DNA.

Data set [5] relates to anti-CD3/CD28-induced lymphocyte proliferation. The data set is described as follows: Lymphocyte proliferation assay (3H-Thymidine), anti-CD3/CD28-stimulated splenocytes. The settings on record: mouse splenocytes; for IC50: 3H-Thymidine incorporation, read-out: IC50, lymphocyte proliferation, T-cells (anti-CD3/CD28). Format: cell-based. On the procedure: as §4, §5

Take `Cc1ccc2nc(NCCN)c3ncc(C)n3c2c1` [BMS-345541, reference compound]: the “suppression of IL-2 production” value in data set [1] was determined as 90%. Also, the “suppression of PMA/Ionomycin-induced IL-2 production” value in data set [2] (Jurkat) is reported as “partially suppressed”. Also, the “cytotoxicity to Jurkat cells” value in data set [3] is on record as “not due to cytotoxicity”. The IC50 was ~2 µM in data set [4] (Lymphocyte) and ~4 µM in data set [5] (Lymphocyte). For the same compound, the “suppression of lymphocyte proliferation” value in data set [4] (concentrations of 5 μM, stimulus not specified) was “essentially completely suppressed”.
As to `Cc1cc2nc(NCCCO)n(CC(=O)c3cc(C(C)(C)C)c(O)c(C(C)(C)C)c3)c2cc1C` [Compound 1, 2-(2-(3-Hydroxypropylamino)-5,6-dimethyl-1H-benzo[d]imidazol-1-yl)-1-(3,5-di-tert-butyl-4-hydroxyphenyl)ethanone], the IC50 in data set [1] (Homo sapiens, CD3/CD28-stimulated Jurkat cells, 24 h, read-out: IC50, suppression of IL-2 production (by approximately half)) is < 10 µM; in data set [2] (Homo sapiens, PMA/Ionomycin-stimulated Jurkat cells, 24 h, read-out: IC50, suppression of IL-2 production (by approximately half)), < 10 µM; in data set [4] (Lymphocyte), 2 µM. The “cytotoxicity to Jurkat cells” value in data set [3] is “not due to cytotoxicity”. Moreover, the “effect on anti-CD3/CD28-induced lymphocyte proliferation” value in data set [5] was “minimal effect”.
For `CN(C)CCCn1cc(C2=C(c3c[nH]c4ccccc34)C(=O)NC2=O)c2ccccc21` [Bisindolylmaleimide I, reference compound], the “suppression of IL-2 production” value is 80-90% in data set [1] and 80-90% in data set [2] (PMA/Ionomycin Jurkat, PKC inhibitor <0.5 μM). The “cytotoxicity to Jurkat cells” value in data set [3] is “not due to cytotoxicity”. The values for the IC50 in data set [4] and in data set [5] were 0.2 µM and 11.5 µM, respectively.

The values are drawn from patent publication US20090247520A1, “INHIBITORS OF ANTIGEN RECEPTOR-INDUCED NF-kappa B ACTIVATION” (The Burnham Institute for Medical Research, priority 2008, published 2009).
